Test results taken from US20250066344A1 (BRISTOL-MYERS SQUIBB COMPANY, priority 2021, published 2025).

Target: T1, human RXFP1 (Homo sapiens, UniProt Q9HBX9)
T1 construct: expressed in transfected cells
T1 sequence (Q9HBX9 1-757): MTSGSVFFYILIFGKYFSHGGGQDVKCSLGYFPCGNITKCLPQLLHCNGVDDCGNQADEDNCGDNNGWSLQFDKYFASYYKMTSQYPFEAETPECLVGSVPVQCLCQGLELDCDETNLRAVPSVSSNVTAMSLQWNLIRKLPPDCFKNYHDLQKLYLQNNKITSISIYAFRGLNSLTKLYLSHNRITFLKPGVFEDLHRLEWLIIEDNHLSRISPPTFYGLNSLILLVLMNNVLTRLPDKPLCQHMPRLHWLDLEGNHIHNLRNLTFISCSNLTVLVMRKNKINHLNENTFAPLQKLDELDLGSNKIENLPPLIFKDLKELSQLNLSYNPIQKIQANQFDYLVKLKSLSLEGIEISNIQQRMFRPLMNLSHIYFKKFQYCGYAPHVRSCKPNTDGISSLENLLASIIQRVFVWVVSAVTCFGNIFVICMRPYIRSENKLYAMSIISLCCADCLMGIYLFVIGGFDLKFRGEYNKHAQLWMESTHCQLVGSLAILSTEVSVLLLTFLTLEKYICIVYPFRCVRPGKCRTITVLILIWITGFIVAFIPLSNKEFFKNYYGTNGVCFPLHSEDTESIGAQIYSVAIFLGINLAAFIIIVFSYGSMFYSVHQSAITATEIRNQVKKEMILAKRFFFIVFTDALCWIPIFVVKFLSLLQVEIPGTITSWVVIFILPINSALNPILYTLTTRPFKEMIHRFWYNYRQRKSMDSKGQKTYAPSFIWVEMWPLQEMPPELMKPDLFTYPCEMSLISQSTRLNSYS
Experiment: RXFP1 cyclic adenosine monophosphate (cAMP) assay, hRXFP1 HEK293
Assay type: cell-based
Settings: HEK293 cells stably expressing human RXFP1; 30 min at room temperature; HTRF cAMP
Description: RXFP1 Cyclic Adenosine Monophosphate (cAMP) Assays. Human embryonic kidney cells 293 (HEK293) cells and HEK293 cells stably expressing human RXFP1, were cultured in MEM medium supplemented with 10% qualified FBS, and 300 μg/ml hygromycin (Life Technologies). Cells were dissociated and suspended in assay buffer. The assay buffer was HBSS buffer (with calcium and magnesium) containing 20 mM HEPES, 0.05% BSA, and 0.5 mM IBMX. Cells (3000 cells per well, except 1500 cell per well for HEK293 cells stably expressing human RXFP1) were added to 384-well Proxiplates (Perkin-Elmer). Cells were immediately treated with test compounds in DMSO (2% final) at final concentrations in the range of 0.010 nM to 50 μM. Cells were incubated for 30 min at room temperature. The level of intracellular cAMP was determined using the HTRF HiRange cAMP assay reagent kit (Cisbio) according to manufacturer's instructions. Solutions of cryptate conjugated anti-cAMP and d2 fluorophore-labelled cAMP were made in a supplied lysis buffer separately. Upon completion of the reaction, the cells were lysed with equal volume of the d2-cAMP solution and anti-cAMP solution. After a 1 h room temperature incubation, time-resolved fluorescence intensity was measured using the Envision (Perkin-Elmer) at 400 nm excitation and dual emission at 590 nm and 665 nm. A calibration curve was constructed with an external cAMP standard at concentrations ranging from 2.7 μM to 0.1 μM by plotting the fluorescent intensity ratio from 665 nm emission to the intensity from the 590 nm emission against cAMP concentrations. The potency and activity of a compound to […] cAMP production was then determined by fitting to a 4-parametric logistic equation from a plot of cAMP level versus compound concentrations.
The examples disclosed below were tested in the human RXFP1 (hRXFP) HEK293 cAMP assay described above and found to have agonist activity. Tables 1-3, lists EC50 values in the hRXFP1 HEK293 cAMP assay measured for the examples.
Table A lists EC50 values in the hRXFP1 HEK293 cAMP assay measured for the examples.

Compound	EC50 [nM]
COc1ccc(C2CCNC2)cc1C(=O)Nc1cc2c(cc1C(=O)Nc1ccc(F)c(C(F)(F)F)c1)OC(F)(F)O2 (single isomer, unassigned) [Example 54, 2,2-difluoro-N-(4-fluoro-3-(trifluoromethyl)phenyl)-6-(2-methoxy-5-(pyrrolidin-3-yl)benzamido)benzo[d] [1,3]dioxole-5-carboxamide]	683
COc1ccc(C2CCN(C(=O)C(C)(C)O)C2)cc1C(=O)Nc1cc2c(cc1C(=O)Nc1ccc(F)c(C(F)(F)F)c1)OC(F)(F)O2 (single isomer, unassigned) [Example 55, 2,2-difluoro-N-(4-fluoro-3-(trifluoromethyl)phenyl)-6-(5-(1-(2-hydroxy-2-methylpropanoyl)pyrrolidin-3-yl)-2-methoxybenzamido) benzo[d][1,3]dioxole-5-carboxamide]	322
COc1ccc(C2=NOC(C)(CO)C2)cc1C(=O)Nc1cc2c(cc1C(=O)Nc1ccc(F)c(C(F)(F)F)c1)OC(F)(F)O2 (single isomer, unassigned) [Example 71, 2,2-difluoro-N-(4-fluoro-3-(trifluoromethyl)phenyl)-6-(5-(5-(hydroxymethyl)-5-methyl-4,5-dihydroisoxazol-3-yl)-2-methoxybenzamido) benzo[d][1,3]dioxole-5-carboxamide]	43
O=C(Nc1cc2c(cc1C(=O)Nc1ccc(F)c(C(F)(F)F)c1)OC(F)(F)O2)c1csc(C2=NOC3COCC23)n1 (single isomer, unassigned) [Example 94, N-(2,2-difluoro-6-((4-fluoro-3-(trifluoromethyl)phenyl)carbamoyl)benzo[d][1,3]dioxol-5-yl)-2-(3a,4,6,6a-tetrahydrofuro[3,4-d]isoxazol-3-yl)thiazole-4-carboxamide]	1400
COc1ccc(C2=NOC3COCC23)cc1C(=O)Nc1cc2nc(C)sc2cc1C(=O)Nc1ccc(F)c(C(F)(F)F)c1 (centres unmarked) [Example 3, N-(4-fluoro-3-(trifluorometh-yl)phenyl)-5-(2-methoxy-5-(3a,4,6,6a-tetrahydrofuro [3,4-d]isox-azol-3-yl)-benzamido)-2-methylbenzo [d]thiazole-6-carboxamide]	8.6
COc1ccc(C2=NOC3CN(C(=O)CO)CC23)cc1C(=O)Nc1cc2nc(C)sc2cc1C(=O)Nc1ccc(F)c(C(F)(F)F)c1 (centres unmarked) [Example 5, N-(4-fluoro-3-(trifluorometh-yl)phenyl)-5-(5-(5-(2-hy-droxyacetyl)-3a,5,6,6a-tetra-hydro-4H-pyr-rolo[3,4-d]isoxazol-3-yl)-2-methoxy-benzamido)-2-methylbenzo [d]thiazole-6-carboxamide]	16
COc1ccc(C2=NOC3CS(=O)(=O)CC23)cc1C(=O)Nc1cc2nc(C)sc2cc1C(=O)Nc1ccc(F)c(C(F)(F)F)c1 (centres unmarked) [Example 6, 5-(5-(5,5-diox-ido-3a,4,6,6a-tetrahydro-thieno[3,4-d]isoxazol-3-yl)-2-methoxy-benzamido)-N-(4-fluoro-3-(trifluorometh-yl)phenyl)-2-methylbenzo [d]thiazole-6-carboxamide]	28
COc1ccc(C2=NOC3C(O)CC(O)C23)cc1C(=O)Nc1cc2nc(C)sc2cc1C(=O)Nc1ccc(F)c(C(F)(F)F)c1 (centres unmarked) [Example 7, 5-(5-(4,6-dihydroxy-3a,5,6,6a-tetra-hydro-4H-cyclopenta[d]isoxazol-3-yl)-2-methoxy-benzamido)-N-(4-fluoro-3-(trifluorometh-yl)phenyl)-2-methylbenzo [d]thiazole-6-carboxamide]	31
COc1ccc(C2=NOC3CC(COP(=O)(O)O)CC23)cc1C(=O)Nc1cc2nc(C)sc2cc1C(=O)Nc1ccc(F)c(C(F)(F)F)c1 (centres unmarked) [Example 9, (3-(3-((6-((4-fluoro-3-(trifluorometh-yl)phenyl)car-bamoyl)-2-methylbenzo [d]thiazol-5-yl)carbamo-yl)-4-meth-oxyphenyl)-3a,5,6,6a-tetra-hydro-4H-cyclopenta[d]isoxazol-5-yl)methyldi-hydrogen phosphate]	110
COCCOC1(C2CC(c3ccc(OC)c(C(=O)Nc4cc5nc(C)sc5cc4C(=O)Nc4ccc(F)c(C(F)(F)F)c4)c3)=NO2)CC1 (centres unmarked) [Example 12, N-(4-fluoro-3-(trifluorometh-yl)phenyl)-5-(2-methoxy-5-(5-(1-(2-meth-oxyethoxy)-cyclopropyl)-4,5-dihydro-isoxazol-3-yl)-benzamido)-2-methylbenzo [d]thiazole-6-carboxamide]	290

The remaining lines, values ahead:

EC50 [nM]	Compound
98	COc1ccc(C2=NOC3CC(N)CC23)cc1C(=O)Nc1cc2c(cc1C(=O)Nc1ccc(F)c(C(F)(F)F)c1)OC(F)(F)O2 (single isomer, unassigned) [Example 50, 6-(5-(5-amino-3a,5,6,6a-tetrahydro-4H-cyclopenta[d]isoxazol-3-yl)-2-methoxybenzamido)-2,2-difluoro-N-(4-fluoro-3-(trifluoromethyl)phenyl)benzo[d][1,3]dioxole-5-carboxamide]
17	COc1ccc(C2=NOC3CS(=O)(=O)CC23)cc1C(=O)Nc1cc2c(cc1C(=O)Nc1ccc(F)c(C(F)(F)F)c1)OC(F)(F)O2 (single isomer, unassigned) [Example 61, 6-(5-(5,5-dioxido-3a,4,6,6a-tetrahydrothieno[3,4-d]isoxazol-3-yl)-2-methoxybenzamido)-2,2-difluoro-N-(4-fluoro-3-(trifluoromethyl)phenyl) benzo[d][1,3]dioxole-5-carboxamide]
65	COc1ccc(C2=NOC(CO)C2)cc1C(=O)Nc1cc2c(cc1C(=O)Nc1ccc(F)c(C(F)(F)F)c1)OC(F)(F)O2 (single isomer, unassigned) [Example 72, 2,2-difluoro-N-(4-fluoro-3-(trifluoromethyl)phenyl)-6-(5-(5-(hydroxymethyl)-4,5-dihydroisoxazol-3-yl)-2-methoxybenzamido) benzo[d][1,3]dioxole-5-carboxamide]
258	COc1ccc(C2=NOC(C(C)(C)O)C2)cc1C(=O)Nc1cc2c(cc1C(=O)Nc1ccc(F)c(C(F)(F)F)c1)OC(F)(F)O2 (single isomer, unassigned) [Example 76, 2,2-difluoro-N-(4-fluoro-3-(trifluoromethyl)phenyl)-6-(5-(5-(2-hydroxypropan-2-yl)-4,5-dihydroisoxazol-3-yl)-2-methoxybenzamido) benzo[d][1,3]dioxole-5-carboxamide]
487	COc1ccc(C2=NOC(C(C)(C)O)C2)cc1C(=O)Nc1cc2c(cc1C(=O)Nc1ccc(F)c(C(F)(F)F)c1)OC(F)(F)O2 (single isomer, unassigned) [Example 77, 2,2-difluoro-N-(4-fluoro-3-(trifluoromethyl)phenyl)-6-(5-(5-(2-hydroxypropan-2-yl)-4,5-dihydroisoxazol-3-yl)-2-methoxybenzamido) benzo[d][1,3]dioxole-5-carboxamide]
130	COc1ccc(C2=NOC3C4CCC(C4)C23)cc1C(=O)Nc1cc2nc(C)sc2cc1C(=O)Nc1ccc(F)c(C(F)(F)F)c1 (centres unmarked) [Example 10, N-(4-fluoro-3-(trifluorometh-yl)phenyl)-5-(5-(3a,4,5,6,7,7a-hexahydro-4,7-methano-benzo[d]isox-azol-3-yl)-2-methoxybenz-amido)-2-methylbenzo [d]thiazole-6-carboxamide]
160	COc1ccc(C2=NOC(C(C)(C)O)C2)cc1C(=O)Nc1cc2nc(C)sc2cc1C(=O)Nc1ccc(F)c(C(F)(F)F)c1 (centres unmarked) [Example 11, N-(4-fluoro-3-(trifluorometh-yl)phenyl)-5-(5-(5-(2-hydroxypro-pan-2-yl)-4,5-dihydroisox-azol-3-yl)-2-methoxybenz-amido)-2-methylbenzo [d]thiazole-6-carboxamide]
